{
  "source": "patent US12144881B2",
  "about": "“Cosmetic composition containing α-mangostin, method for preparation, and uses thereof” (priority 2018, dated 2024)",
  "key": {"[1]": {"assay": "UV absorption spectra in the UV wavelength region", "format": "physicochemical", "conditions": "FIG. 1, UVB 290-320 nm and UVA 320-400 nm", "text": "The present inventors tested the UV absorbance of α-mangostin, butyl methoxydibenzoylmethane and octyl salicylate in the UV wavelength region separately. […] Therefore, the α-mangostin has obvious advantages over the sunscreen agent octyl salicylate, and has a part of the absorption band which can be complementary to that of octyl salicylate, enhancing the UVB protection effect and increasing the SPF value."}, "[2]": {"assay": "Photolysis of butyl methoxydibenzoylmethane under sunlight and its inhibition by α-mangostin (absorbance at 357 nm)", "format": "physicochemical", "conditions": "for M value: M=Bi/Ai, butyl methoxydibenzoylmethane remaining with α-mangostin vs control", "method": "Instrument and equipment: Model 751-GW spectrophotometer; and FA1004 electronic balance. Reagents: butyl methoxydibenzoylmethane, from Shanghai SIMP Co., Ltd.; and an α-mangostin sample. • (6) Formulation of standard stock solutions of butyl methoxydibenzoylmethane and the sample: 20.0 mg of butyl methoxydibenzoylmethane and α-mangostin were weighed separately, and diluted with a specific mixed solvent (an acetone-water mixed solvent with a ratio by volume of acetone to water of 5:1, hereinafter referred to as mixed solvent) to a volume of 10 ml. • (7) Formulation of reference solutions of butyl methoxydibenzoylmethane and the sample: The mixed solvent was used as the reference solution of butyl methoxydibenzoylmethane. 0.1 ml of the standard stock solution of the α-mangostin sample was drawn, and diluted with the mixed solvent to a volume of 10 ml, as the reference solution of the sample. • (8) Formulation of standard working solutions (20 μg/ml) of butyl methoxydibenzoylmethane and the sample: 0.1 ml of the standard stock solution of butyl methoxydibenzoylmethane was drawn and diluted with the mixed solvent to a volume of 10 ml. 0.1 ml aliquots of the standard stock solution of the α-mangostin sample were drawn separately, and added separately to 0.1 ml aliquots of the standard stock solution of butyl methoxydibenzoylmethane, and then diluted with the mixed solvent to a volume of 10 ml. • (9) Reference solutions and standard working solutions of different concentrations of rutin were formulated according to Steps (2) and (3). • (10) Determination of the photolysis rate and photolysis inhibition rate of butyl methoxydibenzoylmethane: The absorbance of the standard working solution of butyl methoxydibenzoylmethane and the absorbance of butyl methoxydibenzoylmethane in the α-mangostin sample were measured at 357 nm. Then they were subjected to the sunlight exposure, and the absorbance thereof was measured every day. The photolysis rate, the photolysis inhibition rate and the M value of butyl methoxydibenzoylmethane were calculated according to the following formulas: % Photolysis rate=(A0−Ai)/A0×100% % Photolysis inhibition rate=[1−(B0−Bi)/(A0−Ai)]×100 M=Bi/Ai In the formulas, A0 is the absorbance of the standard working solution of butyl methoxydibenzoylmethane; Ai is the absorbance of the standard working solution of butyl methoxydibenzoylmethane after i days of light exposure; B0 is the absorbance of butyl methoxydibenzoylmethane in the standard working solution of the α-mangostin sample; Bi is the absorbance of butyl methoxydibenzoylmethane in the standard working solution of the α-mangostin sample after i days of light exposure; and M is the ratio of the amount of butyl methoxydibenzoylmethane remaining in the α-mangostin sample to the amount of butyl methoxydibenzoylmethane remaining in the control sample without the sample added. For the above α-mangostin sample and butyl methoxydibenzoylmethane, each was determined for the photolysis inhibition rate or the photolysis rate at the same exposure time, to obtain the curve of light exposure time vs. photolysis inhibition rate of the α-mangostin sample (FIG. 3) and the curve of light exposure time vs. photolysis rate of butyl methoxydibenzoylmethane (FIG. 2)."}, "[3]": {"assay": "Oxygen Radical Absorbance Capacity (ORAC) assay against peroxyl radicals", "conditions": "trolox equivalent", "method": "(§1) Test Method: Oxygen Radical Absorbance Capacity (ORAC) Assay Specific method: An extraction solution containing a solubilizing compound was prepared, the sample was added to the extraction solution to extract the antioxidants present in the sample, and a fluorescent probe was added to the extract, a free radical generator was added to the extract, to detect the decay of the fluorescence intensity of the probe in the sample over time, and calculate the oxidation resistance of the sample based on the decay of the fluorescence intensity of the probe in the sample. The results of ORAC are expressed as micromole trolox equivalent (μmole TE)/gram. Trolox is a vitamin E analog, which is an antioxidant standard substance."}, "[4]": {"assay": "Oxygen Radical Absorbance Capacity (ORAC) assay against hydroxyl radicals", "conditions": "trolox equivalent", "method": "as §1"}, "[5]": {"assay": "Oxygen Radical Absorbance Capacity (ORAC) assay against peroxynitrite", "conditions": "trolox equivalent", "method": "as §1"}, "[6]": {"assay": "Oxygen Radical Absorbance Capacity (ORAC) assay against oxide anion", "conditions": "trolox equivalent", "method": "as §1"}, "[7]": {"assay": "Oxygen Radical Absorbance Capacity (ORAC) assay against single oxygen", "conditions": "trolox equivalent", "method": "as §1"}, "[8]": {"assay": "ORAC 5.0 (sum of five ORAC results)", "conditions": "trolox equivalent", "method": "Test Method: Oxygen Radical Absorbance Capacity (ORAC) Assay\nSpecific method: An extraction solution containing a solubilizing compound was prepared, the sample was added to the extraction solution to extract the antioxidants present in the sample, and a fluorescent probe was added to the extract, a free radical generator was added to the extract, to detect the decay of the fluorescence intensity of the probe in the sample over time, and calculate the oxidation resistance of the sample based on the decay of the fluorescence intensity of the probe in the sample.\nNote: There are 5 main reactive oxygen species (ROS) in the human body: peroxy radicals, hydroxyl radicals, peroxynitrite, superoxide anions and singlet oxygen.\nThe results of ORAC are expressed as micromole trolox equivalent (μmole TE)/gram. Trolox is a vitamin E analog, which is an antioxidant standard substance."}, "[9]": {"assay": "Solubility in water", "format": "physicochemical", "conditions": "extracted α-mangostin"}},
  "data": [
    {"smiles": "COc1c(O)cc2oc3cc(O)c(CC=C(C)C)c(O)c3c(=O)c2c1CC=C(C)C", "note": "[α-mangostin]", "values": [
      {"measurement": "UV absorption (in words)", "setting": "[1]", "value": "relatively strong absorption from the UVB range of 290-320 nm to the UVA range of 320-400 nm"},
      {"measurement": "M value", "setting": "[2]; Day 1", "value": 5.77},
      {"measurement": "M value", "setting": "[2]; Day 2", "value": 12.31},
      {"measurement": "inhibitory effect on the photolysis of butyl methoxydibenzoylmethane (in words)", "setting": "[2]; sunlight", "value": "very good inhibitory effect"},
      {"measurement": "Inhibition rate of α-mangostin (photolysis inhibition rate)", "setting": "[2]; sunlight, light exposure time 1 d, 20 μg/ml each", "value": 84.3, "unit": "%"},
      {"measurement": "Inhibition rate of α-mangostin (photolysis inhibition rate)", "setting": "[2]; sunlight, light exposure time 2 d", "value": 82.9, "unit": "%"},
      {"measurement": "Inhibition rate of α-mangostin (photolysis inhibition rate)", "setting": "[2]; sunlight, light exposure time 3 d", "value": 82.1, "unit": "%"},
      {"measurement": "Inhibition rate of α-mangostin (photolysis inhibition rate)", "setting": "[2]; sunlight, light exposure time 4 d", "value": 80.5, "unit": "%"},
      {"measurement": "Inhibition rate of α-mangostin (photolysis inhibition rate)", "setting": "[2]; sunlight, light exposure time 5 d", "value": 76.4, "unit": "%"},
      {"measurement": "ORAC against peroxyl radicals", "setting": "[3]", "value": "8,704 μmole TE/gram"},
      {"measurement": "ORAC against hydroxyl radicals", "setting": "[4]", "value": "9,055 μmole TE/gram"},
      {"measurement": "ORAC against peroxynitrite", "setting": "[5]", "value": 404, "unit": "μmole TE/gram"},
      {"measurement": "ORAC against oxide anion", "setting": "[6]", "value": "13,043 μmole TE/gram"},
      {"measurement": "ORAC against single oxygen", "setting": "[7]", "value": 262, "unit": "μmole TE/gram"},
      {"measurement": "ORAC 5.0 (sum of above)", "setting": "[8]", "value": "31,468 μmole TE/gram"},
      {"measurement": "solubility in water (in words)", "setting": "[9]", "value": "poor solubility in water"}
    ]}
  ]
}
